Earlier results on three molecules are cited in patent US6632827B2 (Sepracor Inc., priority 1996, dated 2003).

The structures appear in SMILES notation.

The conditions of data set [1]: co-administered ketoconazole.
A further data set has as its target T1, 5HT4 receptors (Mus musculus, UniProt P97288).
T1 construct: Using cultured mouse embryo colliculi neurons and cAMP generation as an endpoint for designating 5HT4 activity; host or cells: cultured mouse embryo colliculi neurons
The following applies: cultured mouse embryo colliculi neurons; read-out: EC50 concentration, cAMP generation as endpoint for 5HT4 activity.

A further data set relates to beta-adrenergic. Conditions: S-enantiomer vs R-enantiomer.

T1 sequence (P97288 whole entry): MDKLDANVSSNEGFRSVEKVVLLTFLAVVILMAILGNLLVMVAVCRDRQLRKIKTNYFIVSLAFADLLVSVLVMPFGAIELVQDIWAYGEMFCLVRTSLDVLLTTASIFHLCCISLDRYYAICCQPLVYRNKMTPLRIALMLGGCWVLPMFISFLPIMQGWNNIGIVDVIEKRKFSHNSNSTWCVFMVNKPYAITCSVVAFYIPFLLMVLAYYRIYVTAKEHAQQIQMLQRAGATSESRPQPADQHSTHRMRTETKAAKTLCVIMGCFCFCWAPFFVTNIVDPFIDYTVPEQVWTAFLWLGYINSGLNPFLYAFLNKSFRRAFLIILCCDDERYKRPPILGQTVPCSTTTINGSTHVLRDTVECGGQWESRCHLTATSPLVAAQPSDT

`COc1cc(N)c(Cl)cc1C(=O)N[C@H]1CCN(CCCOc2ccc(F)cc2)C[C@H]1OC` (racemic) [(±) Cisapride, cis-4-amino-5-chloro-N-[1-[3-(4-fluorophenoxy)propyl]-3-methoxy-4-piperidinyl]-2-methoxybenzamide]: the “Bioavailability of the parent compound” value (oral administration to humans) is listed as 40-50%. Besides, the “Fraction of dose metabolized” value (oxidative N-dealkylation or aromatic hydroxylation) is given as “More than 90%”. Also, the “Increase in steady-state plasma levels” value in data set [1] is 8 fold. Moreover, the EC50 on 5HT4 receptors was 70 nM.
Consider `COc1cc(N)c(Cl)cc1C(=O)NC1CCNCC1OC` (racemic) [(±) Norcisapride, 4-amino-5-chloro-N-(3-methoxy-4-piperidinyl)-2 methoxybenzamide], for which the “Share of the drug found in urine” value (urine of humans 72 hours after dosing of cisapride) was 50-80%.
Turning to `CC(C)NCC(O)COc1cccc2ccccc12` (stereo not drawn) [propranolol], the “Potency of S-enantiomer relative to R-enantiomer” value with beta-adrenergic is reported as 100 times.
